Consider seven compounds from PubChem BioAssay (NCI).

Molecules are shown by their SMILES.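 1) Cells in 96-well plates. 2) Compound, 48 h, 5 concentrations. 3) Linear interpolation between surrounding doses. 4) Unreached endpoint = highest concentration. TGI marks complete inhibition of growth.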

Test systems include NCI-H460 lung; SNB-75 CNS; HCT-15 colon; SW-620 colon; U251 CNS; MCF7 breast; UO-31 renal; OVCAR-8 ovarian; K-562 leukemia; UACC-257 melanoma; RPMI-8226 leukemia; COLO 205 colon; SK-OV-3 ovarian; HCC-2998 colon; TK-10 renal; M14 melanoma; ACHN renal.
Holding throughout (assay): NCI-60 cell line screen, 48 h

`CC(=O)OC1C=C(C=O)C(O)(C=O)C2(C)CCCC(C)(C)C12` (stereo unspecified): the TGI in the test on NCI-H460 lung was 4.21 µM; with SNB-75 CNS, 5.82 µM; in the test on HCT-15 colon it was 1.7 µM; with SW-620 colon, 0.953 µM; in the test on U251 CNS, 7.39 µM; in the test with MCF7 breast, 5.49 µM. For the same compound, the TGI with UO-31 renal was found to be 5.66 µM; in the test on OVCAR-8 ovarian, 4.6 µM; in the test on K-562 leukemia, 1.73 µM; with UACC-257 melanoma it was 5.68 µM; in the test with RPMI-8226 leukemia, 1.5 µM; in the test on COLO 205 colon it was 2.75 µM. For the same compound, the values for the TGI with SK-OV-3 ovarian and in the test on HCC-2998 colon were 8.68 µM and 5.75 µM, respectively.

For `COC(=O)C1=CC2C(=O)c3ccccc3C1(c1ccccc1)N2C1CCCCC1` (stereo unspecified), the TGI with TK-10 renal was > 100 µM; in the test with M14 melanoma it was > 100 µM; in the test on NCI-H460 lung it was 40.6 µM; in the test on SNB-75 CNS, > 100 µM; in the test on HCT-15 colon, > 100 µM; in the test on SW-620 colon, > 100 µM. Further, the TGI is 43.7 µM with U251 CNS; 36.8 µM with MCF7 breast; > 100 µM in the test on ACHN renal; > 100 µM with UO-31 renal; > 100 µM with OVCAR-8 ovarian; > 100 µM in the test with K-562 leukemia. For the same compound, the TGI was 39 µM in the test on UACC-257 melanoma, 26.2 µM in the test on COLO 205 colon, > 100 µM in the test with SK-OV-3 ovarian and 30.1 µM in the test with HCC-2998 colon.

For `Cc1[nH]c(=O)[nH]c(=O)c1/C=C/C(=O)NC(CO)CC(C)C` (stereo unspecified), the TGI is > 187 µM in the test with NCI-H460 lung; > 375 µM in the test with SNB-75 CNS; > 375 µM with HCT-15 colon; > 375 µM in the test with SW-620 colon; > 375 µM in the test with U251 CNS; > 375 µM with MCF7 breast. Also, the TGI in the test with UO-31 renal was > 375 µM; in the test on OVCAR-8 ovarian, > 237 µM; in the test with K-562 leukemia, > 237 µM; in the test on UACC-257 melanoma, > 375 µM; in the test on RPMI-8226 leukemia it was > 375 µM; in the test with COLO 205 colon it was > 375 µM. Besides, the TGI with SK-OV-3 ovarian and in the test on HCC-2998 colon was > 375 µM each time.

For `Cc1ccc(-c2c(C#N)c(-c3ccccc3)n(NS(=O)(=O)c3ccc(C)cc3)c(=O)c2C#N)cc1`, the TGI in the test on TK-10 renal, in the test on M14 melanoma, with NCI-H460 lung, in the test on SNB-75 CNS, in the test on HCT-15 colon and in the test with SW-620 colon was > 100 µM each time. Further, the TGI in the test on U251 CNS, in the test with MCF7 breast, with ACHN renal, with OVCAR-8 ovarian, in the test with K-562 leukemia and in the test on UACC-257 melanoma was > 100 µM in each case. For the same compound, the TGI with RPMI-8226 leukemia was 31.6 µM; in the test on COLO 205 colon it was > 100 µM; in the test on SK-OV-3 ovarian, > 100 µM; with HCC-2998 colon, > 100 µM.

In the case of `C=CC(C)(C)n1cc(C2=C3OC(=O)C(c4cn(C(C)(C)C=C)c5ccccc45)=C3OC2=O)c2ccccc21`, the TGI with TK-10 renal, in the test on M14 melanoma, with NCI-H460 lung, with SNB-75 CNS, with HCT-15 colon and in the test with SW-620 colon was > 100 µM throughout. Also, the TGI with U251 CNS, in the test with MCF7 breast, with ACHN renal, in the test with UO-31 renal, in the test with OVCAR-8 ovarian and with K-562 leukemia was > 100 µM each time. Further, the TGI with UACC-257 melanoma, in the test on RPMI-8226 leukemia, in the test on COLO 205 colon and in the test with HCC-2998 colon was > 100 µM in each case.

As to `C[C@]12CCC(O)CC1=CC[C@@H]1[C@@H]2CC[C@]2(C)C(O)[C@H](n3ccnc3)C[C@@H]12` (stereo partly specified), the TGI in the test on TK-10 renal, in the test with M14 melanoma, with NCI-H460 lung, in the test with SNB-75 CNS, in the test on HCT-15 colon and in the test with SW-620 colon was > 100 µM in each case. The TGI in the test on U251 CNS, with MCF7 breast, with ACHN renal, in the test on UO-31 renal, in the test on OVCAR-8 ovarian and in the test on K-562 leukemia was > 100 µM in each case. The TGI in the test with UACC-257 melanoma, in the test with RPMI-8226 leukemia and in the test with COLO 205 colon was > 100 µM in each case.

Consider `CCOC(=O)/C(C#N)=C/Nc1c(C)n(C)n(-c2ccccc2)c1=O`, for which the TGI in the test with TK-10 renal, in the test on M14 melanoma, with HCT-15 colon, in the test with SW-620 colon, in the test on U251 CNS and in the test on MCF7 breast was > 100 µM each time. The TGI in the test with ACHN renal, with UO-31 renal, in the test with OVCAR-8 ovarian, in the test with K-562 leukemia, in the test on UACC-257 melanoma and in the test on RPMI-8226 leukemia was > 100 µM in each case. The TGI with COLO 205 colon, in the test on SK-OV-3 ovarian and in the test with HCC-2998 colon was > 100 µM each time.
